# Reference: PubChem BioAssay (NCI)
#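 Method: 48-hour compound exposure of cells in 96-well plates, five concentrations, linear interpolation of endpoints. Here, GI50 denotes the concentration required for 50% inhibition of growth. TGI: concentration producing complete growth inhibition.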
# Legend:
# Experiment in all cases: NCI-60 cell line screen, 48 h
# OVCAR-8 ovarian = system: OVCAR-8 ovarian
# SF-268 CNS = system: SF-268 CNS
# UACC-62 melanoma = system: UACC-62 melanoma
# A549 NSCLC = system: A549 NSCLC
# MDA-MB-231 breast = system: MDA-MB-231 breast
# SW-620 colon = system: SW-620 colon
# NCI-H23 lung = system: NCI-H23 lung
# SF-295 CNS = system: SF-295 CNS
# UO-31 renal = system: UO-31 renal
# SK-OV-3 ovarian = system: SK-OV-3 ovarian
SMILES,GI50 (OVCAR-8 ovarian),TGI (OVCAR-8 ovarian),GI50 (SF-268 CNS),TGI (SF-268 CNS),GI50 (UACC-62 melanoma),TGI (UACC-62 melanoma),GI50 (A549 NSCLC),TGI (A549 NSCLC),GI50 (MDA-MB-231 breast),TGI (MDA-MB-231 breast),GI50 (SW-620 colon),TGI (SW-620 colon),GI50 (NCI-H23 lung),TGI (NCI-H23 lung),GI50 (SF-295 CNS),TGI (SF-295 CNS),GI50 (UO-31 renal),TGI (UO-31 renal),TGI (SK-OV-3 ovarian),GI50 (SK-OV-3 ovarian)
O=C(O)CC(S)C(=O)O.[Li+].[Sb] (stereo unspecified),> 100 µM,> 100 µM,> 100 µM,> 100 µM,> 100 µM,> 100 µM,> 100 µM,> 100 µM,> 100 µM,> 100 µM,> 100 µM,> 100 µM,> 100 µM,> 100 µM,55.3 µM,> 100 µM,> 100 µM,> 100 µM,–,–
COC(=O)/C=C(C)/C=C/c1c(C)c(C(C)=O)c(C)n1C,–,> 100 µM,–,> 100 µM,–,> 100 µM,–,> 100 µM,–,–,–,> 100 µM,–,> 100 µM,–,> 100 µM,–,> 100 µM,> 100 µM,–
COc1ccc2[nH]cc(Cc3c[nH]c4ccc(OC)cc34)c2c1,17.4 µM,37.4 µM,22.7 µM,62.5 µM,16 µM,29.5 µM,19.1 µM,46.9 µM,4.65 µM,19.4 µM,18.3 µM,32.2 µM,21.7 µM,40.7 µM,16.6 µM,34.5 µM,27.5 µM,> 100 µM,–,–
O=[N+]([O-])c1cc(C(F)(F)F)cc2n[se]nc12,–,4.25 µM,–,15.3 µM,–,15 µM,–,27 µM,–,5.84 µM,–,3.11 µM,–,9.58 µM,–,25.8 µM,–,14.1 µM,27.5 µM,–
CN(CCCCCCCCNc1ccnc2ccccc12)Cc1ccc(-c2ccc(-c3ccc(C#N)cc3)s2)cc1,1.02 µM,4.5 µM,1.6 µM,3.45 µM,1.53 µM,2.92 µM,1.01 µM,2.94 µM,1.46 µM,3.06 µM,0.178 µM,0.432 µM,0.84 µM,2.42 µM,0.501 µM,1.26 µM,1.23 µM,2.57 µM,3.27 µM,1.65 µM
COC(=O)c1cc2c([nH]c3ccccc32)c(-c2nc3ccccc3cc2CO)n1,> 100 µM,> 100 µM,> 100 µM,> 100 µM,> 100 µM,> 100 µM,> 100 µM,> 100 µM,40 µM,> 100 µM,> 100 µM,> 100 µM,> 100 µM,> 100 µM,> 100 µM,> 100 µM,> 100 µM,> 100 µM,> 100 µM,55.9 µM
COc1cc2c(cc1OC)-c1c(c3ccc([N+](=O)[O-])cc3c(=O)n1CCCN=[N+]=[N-])C2=O,40.9 µM,> 100 µM,41.7 µM,> 100 µM,51.9 µM,> 100 µM,56.6 µM,> 100 µM,> 100 µM,> 100 µM,99.8 µM,> 100 µM,40.5 µM,> 100 µM,30.1 µM,> 100 µM,42.4 µM,> 100 µM,> 100 µM,> 100 µM
CC(O)(c1ccc(OCCC[N+](C)(C)C)cc1)C(C)(O)c1ccc(OCCC[N+](C)(C)C)cc1 (stereo unspecified),–,> 100 µM,–,> 100 µM,–,> 100 µM,–,> 100 µM,–,–,–,> 100 µM,–,> 100 µM,–,> 100 µM,–,> 100 µM,> 100 µM,–
CCOP(=O)(OCC)C(NC(c1ccccc1)c1ccccc1)c1ccsc1 (stereo unspecified),23.5 µM,57 µM,15.5 µM,36.2 µM,12.8 µM,25.5 µM,24.7 µM,76.9 µM,7.05 µM,20.5 µM,29.2 µM,61.5 µM,19.9 µM,35.5 µM,18.4 µM,36.9 µM,33.1 µM,> 100 µM,–,–
CC(Oc1ccc2c(=O)cc(-c3ccccc3)oc2c1)C(=O)O (stereo unspecified),–,> 100 µM,–,> 100 µM,–,> 100 µM,–,> 100 µM,–,–,–,> 100 µM,–,> 100 µM,–,> 100 µM,–,> 100 µM,> 100 µM,–
CCCCCCCCCCCCCP(=O)(OC)OC,–,31.9 µM,–,–,–,32.2 µM,–,36.9 µM,–,–,–,32.4 µM,–,35.6 µM,–,37.1 µM,–,29.8 µM,33.3 µM,–
O=C1C(c2ccccc2)=[N+]([O-])c2cc([N+](=O)[O-])ccc21,–,32.6 µM,–,46.9 µM,–,26.9 µM,–,> 100 µM,–,–,–,> 100 µM,–,> 100 µM,–,> 100 µM,–,> 100 µM,> 100 µM,–
C=C1CCCC2OC(OC)CCC12 (stereo unspecified),–,> 100 µM,–,> 100 µM,–,> 100 µM,–,> 100 µM,–,–,–,> 100 µM,–,> 100 µM,–,> 100 µM,–,> 100 µM,> 100 µM,–
O=C(CO)CC(=O)C(=O)Nc1cccc(C(F)(F)F)c1,–,> 100 µM,–,> 100 µM,–,> 100 µM,–,> 100 µM,–,–,–,> 100 µM,–,> 100 µM,–,> 100 µM,–,> 100 µM,> 100 µM,–
CC(=O)CCn1[nH]c(=O)c(Cl)c(Cl)c1=O,–,> 100 µM,–,> 100 µM,–,> 100 µM,–,> 100 µM,–,–,–,45.3 µM,–,> 100 µM,–,> 100 µM,–,> 100 µM,–,–
COc1ccc(C(=O)Nc2ccn(CCOC(=O)c3ccc(OC)cc3)c(=O)n2)cc1,–,> 100 µM,–,> 100 µM,–,> 100 µM,–,> 100 µM,–,–,–,> 100 µM,–,–,–,> 100 µM,–,> 100 µM,> 100 µM,–
CCCCCC1CC=CC(NC(=O)OCc2ccccc2)C1/C=C/CCCC1OCCO1 (stereo unspecified),–,> 100 µM,–,> 100 µM,–,> 100 µM,–,> 100 µM,–,–,–,> 100 µM,–,> 100 µM,–,> 100 µM,–,72.2 µM,> 100 µM,–
